Patent US11339130B1 (Blade Therapeutics, Inc., priority 2016, dated 2022)

Tests used:
Human Calpain 1/NS1 = biological target: T1, Human Calpain 1/NS1 (Homo sapiens, UniProt P07384); test: Calpain inhibition continuous fluorescence (FRET) assay, Human Calpain 1/NS1; assay type: biochemical; details: read-out: Human Calpain 1/NS1 IC50
T1 sequence (P07384 1-714): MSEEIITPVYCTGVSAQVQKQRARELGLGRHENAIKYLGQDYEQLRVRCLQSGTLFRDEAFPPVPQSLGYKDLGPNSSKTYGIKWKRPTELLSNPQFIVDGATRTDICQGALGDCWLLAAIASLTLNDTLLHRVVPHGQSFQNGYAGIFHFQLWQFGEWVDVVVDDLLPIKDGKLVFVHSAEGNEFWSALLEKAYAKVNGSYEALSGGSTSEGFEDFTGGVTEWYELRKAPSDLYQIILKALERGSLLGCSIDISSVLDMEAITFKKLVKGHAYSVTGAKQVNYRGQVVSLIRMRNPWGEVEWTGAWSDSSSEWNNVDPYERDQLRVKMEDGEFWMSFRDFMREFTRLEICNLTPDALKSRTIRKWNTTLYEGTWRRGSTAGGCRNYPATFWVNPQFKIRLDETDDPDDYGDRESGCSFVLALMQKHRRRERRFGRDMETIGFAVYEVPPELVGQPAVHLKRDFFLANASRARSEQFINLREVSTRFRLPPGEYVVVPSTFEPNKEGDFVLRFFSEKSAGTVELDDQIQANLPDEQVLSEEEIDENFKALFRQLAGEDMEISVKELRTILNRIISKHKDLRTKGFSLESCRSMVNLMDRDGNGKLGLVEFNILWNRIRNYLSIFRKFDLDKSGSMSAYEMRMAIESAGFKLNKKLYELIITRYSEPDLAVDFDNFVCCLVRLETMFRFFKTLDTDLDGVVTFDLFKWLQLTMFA
T1 sequence (P04632 1-268 partner): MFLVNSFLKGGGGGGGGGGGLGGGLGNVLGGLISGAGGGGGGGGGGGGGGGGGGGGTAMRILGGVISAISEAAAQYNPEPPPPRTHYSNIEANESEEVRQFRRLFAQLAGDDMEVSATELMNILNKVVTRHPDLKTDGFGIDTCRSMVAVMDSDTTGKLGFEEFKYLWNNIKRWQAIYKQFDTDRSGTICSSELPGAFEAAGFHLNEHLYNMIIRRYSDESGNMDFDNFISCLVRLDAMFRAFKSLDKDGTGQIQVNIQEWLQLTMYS
In short: (§1)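 Calpain activity is measured kinetically with a quenched FRET peptide in 50 mM Tris pH 7.5, 100 mM NaCl, 1 mM DTT, with CaCl2 triggering activation. Rates over 1-5 min are plotted against log inhibitor to obtain IC50 by 4-parameter logistic fitting.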

Human Calpain 2/NS1 = biological target: T2, Human Calpain 2/NS1 (Homo sapiens, UniProt P17655); test: Calpain inhibition continuous fluorescence (FRET) assay, Human Calpain 2/NS1; assay type: biochemical; details: read-out: Human Calpain 2/NS1 IC50
T2 sequence (P17655 1-700): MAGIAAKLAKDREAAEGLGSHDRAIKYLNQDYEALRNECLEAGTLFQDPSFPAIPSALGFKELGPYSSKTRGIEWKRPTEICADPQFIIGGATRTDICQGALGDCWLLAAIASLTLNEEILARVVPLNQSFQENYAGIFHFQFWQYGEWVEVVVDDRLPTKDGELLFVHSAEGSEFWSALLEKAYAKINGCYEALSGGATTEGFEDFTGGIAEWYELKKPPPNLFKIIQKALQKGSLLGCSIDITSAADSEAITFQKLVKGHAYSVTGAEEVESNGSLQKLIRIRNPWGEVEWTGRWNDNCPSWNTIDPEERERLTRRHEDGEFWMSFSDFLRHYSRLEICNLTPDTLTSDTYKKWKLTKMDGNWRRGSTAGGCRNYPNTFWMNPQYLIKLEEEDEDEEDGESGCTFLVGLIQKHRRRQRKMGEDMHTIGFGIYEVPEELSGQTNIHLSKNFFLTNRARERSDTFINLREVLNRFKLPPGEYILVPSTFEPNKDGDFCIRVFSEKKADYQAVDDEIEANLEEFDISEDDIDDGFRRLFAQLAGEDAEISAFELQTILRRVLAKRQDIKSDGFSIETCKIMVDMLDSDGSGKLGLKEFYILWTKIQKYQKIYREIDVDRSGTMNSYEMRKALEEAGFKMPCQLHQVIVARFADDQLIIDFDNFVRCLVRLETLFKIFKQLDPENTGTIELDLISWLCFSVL
T2 sequence (P04632 1-268 partner): T1 sequence (P04632 1-268 partner)
In short: as §1

Human Calpain 9/NS1 = biological target: T3, Human Calpain 9/NS1 (Homo sapiens, UniProt O14815); test: Calpain inhibition continuous fluorescence (FRET) assay, Human Calpain 9/NS1; assay type: biochemical; details: read-out: Human Calpain 9/NS1 IC50
T3 sequence (O14815 1-690): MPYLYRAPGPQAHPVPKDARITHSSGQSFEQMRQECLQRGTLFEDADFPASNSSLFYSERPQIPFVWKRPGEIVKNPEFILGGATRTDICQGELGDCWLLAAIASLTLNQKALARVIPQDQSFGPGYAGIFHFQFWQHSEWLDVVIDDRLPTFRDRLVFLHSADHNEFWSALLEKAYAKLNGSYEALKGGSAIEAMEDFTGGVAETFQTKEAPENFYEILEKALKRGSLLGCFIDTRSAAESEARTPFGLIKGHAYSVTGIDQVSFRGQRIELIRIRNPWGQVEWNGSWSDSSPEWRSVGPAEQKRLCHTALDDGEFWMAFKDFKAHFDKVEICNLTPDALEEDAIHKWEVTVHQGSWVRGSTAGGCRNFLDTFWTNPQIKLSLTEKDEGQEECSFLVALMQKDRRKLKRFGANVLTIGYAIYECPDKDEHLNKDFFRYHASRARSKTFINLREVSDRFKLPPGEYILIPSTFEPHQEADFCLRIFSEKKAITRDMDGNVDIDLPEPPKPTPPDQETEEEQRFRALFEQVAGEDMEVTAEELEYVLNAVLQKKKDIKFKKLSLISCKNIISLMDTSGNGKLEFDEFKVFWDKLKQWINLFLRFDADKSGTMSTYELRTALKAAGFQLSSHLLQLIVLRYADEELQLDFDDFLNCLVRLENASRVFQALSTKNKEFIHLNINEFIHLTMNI
T3 sequence (P04632 1-268 partner): T1 sequence (P04632 1-268 partner)
In short: as §1

[1] = tested on: Calpain activity in SH-SY5Y cells (SBDP-150); test: SH-SY5Y Spectrin western blot assay (SBDP-150 breakdown product, A23187-induced); assay type: cell-based; details: Homo sapiens; SH-SY5Y cells, A23187-induced SBDP-150, western blot; read-out: SH-SY5Y Spectrin IC50
[2] = tested on: Calpain activity in SH-SY5Y cells; test: SH-SY5Y + AMC fluorescence assay (Suc-LLVY-AMC substrate); assay type: cell-based; details: read-out: SH-SY5Y + AMC IC50

| SMILES | IC50 (Human Calpain 1/NS1) [µM] | IC50 (Human Calpain 2/NS1) [µM] | IC50 (Human Calpain 9/NS1) [µM] | IC50 [1] [µM] | IC50 [2] [µM] |
| --- | --- | --- | --- | --- | --- |
| Cn1cc(C(=O)N[C@@H](Cc2ccc(O)cc2)C(=O)C(N)=O)c(-c2ccccc2)n1 [Compound 421, (S)—N-(4-amino-1-(4-hydroxyphenyl)-3,4-dioxobutan-2-yl)-1-methyl-3-phenyl-1H-pyrazole-4-carboxamide] | < 3 | < 3 | < 3 | 10 to 25 | < 10 |
| Cn1cc(C(=O)NC(CCC(F)(F)F)C(=O)C(N)=O)c(-c2ccccc2)n1 (stereo not drawn) [Compound 422, N-(1-amino-6,6,6-trifluoro-1,2-dioxohexan-3-yl)-1-methyl-3-phenyl-1H-pyrazole-4-carboxamide] | > 10 | 3 to 10 | 3 to 10 | > 25 | > 25 |
| Cn1cc(C(=O)N[C@@H](Cc2c[nH]c3ccccc23)C(=O)C(N)=O)c(-c2ccccc2)n1 [Compound 423, (S)—N-(4-amino-1-(1H-indol-3-yl)-3,4-dioxobutan-2-yl)-1-methyl-3-phenyl-1H-pyrazole-4-carboxamide] | < 3 | < 3 | < 3 | < 10 | < 10 |
| Cn1cc(C(=O)NC(CC(F)(F)F)C(=O)C(N)=O)c(-c2ccccc2)n1 (stereo not drawn) [Compound 424, N-(5-amino-1,1,1-trifluoro-4,5-dioxopentan-3-yl)-1-methyl-3-phenyl-1H-pyrazole-4-carboxamide] | 3 to 10 | < 3 | < 3 | 10 to 25 | > 25 |
| Cc1cc(C(=O)NC(Cc2ccccc2)C(=O)C(N)=O)c(-n2cc3ccccc3n2)s1 (stereo not drawn) [Compound 428, N-(4-amino-3,4-dioxo-1-phenylbutan-2-yl)-2-(2H-indazol-2-yl)-5-methylthiophene-3-carboxamide] | < 3 | < 3 | < 3 | < 10 | > 25 |
| Cc1occ(C(=O)N[C@@H](Cc2ccccc2)C(=O)C(N)=O)c1-c1ccccc1 [Compound 430, (S)—N-(4-amino-3,4-dioxo-1-phenylbutan-2-yl)-5-methyl-4-phenylfuran-3-carboxamide] | < 3 | < 3 | < 3 | < 10 | < 10 |
| Cc1cc(C(=O)NC(Cc2ccccc2)C(=O)C(N)=O)n(-c2ccnc(C(C)C)n2)n1 (stereo not drawn) [Compound 431, N-(4-amino-3,4-dioxo-1-phenylbutan-2-yl)-1-(2-isopropylpyrimidin-4-yl)-3-methyl-1H-pyrazole-5-carboxamide] | < 3 | < 3 | < 3 | > 25 | < 10 |
| C#Cc1nccc(-n2nc(C)cc2C(=O)NC(Cc2ccccc2)C(=O)C(N)=O)n1 (stereo not drawn) [Compound 432, N-(4-amino-3,4-dioxo-1-phenylbutan-2-yl)-1-(2-ethynylpyrimidin-4-yl)-3-methyl-1H-pyrazole-5-carboxamide] | < 3 | < 3 | < 3 | < 10 | < 10 |
| C#Cc1nccc(-n2nc(C)cc2C(=O)N[C@@H](Cc2ccccc2)C(=O)CF)n1 [Compound 433, (S)-1-(2-ethynylpyrimidin-4-yl)-N-(4-fluoro-3-oxo-1-phenylbutan-2-yl)-3-methyl-1H-pyrazole-5-carboxamide] | 3 to 10 | 3 to 10 | > 10 | 10 to 25 | > 25 |

Second part, the compound after the results:

| IC50 (Human Calpain 1/NS1) [µM] | IC50 (Human Calpain 2/NS1) [µM] | IC50 (Human Calpain 9/NS1) [µM] | IC50 [1] [µM] | IC50 [2] [µM] | SMILES |
| --- | --- | --- | --- | --- | --- |
| < 3 | < 3 | < 3 | > 25 | > 25 | CC(C)C[C@H](NC(=O)c1cn(C)nc1-c1ccccc1)C(=O)C(N)=O [Compound 415, (S)—N-(1-amino-5-methyl-1,2-dioxohexan-3-yl)-1-methyl-3-phenyl-1H-pyrazole-4-carboxamide] |
| < 3 | < 3 | < 3 | > 25 | > 25 | Cn1cc(C(=O)N[C@@H](CC(C)(C)C)C(=O)C(N)=O)c(-c2ccccc2)n1 [Compound 416, (S)—N-(1-amino-5,5-dimethyl-1,2-dioxohexan-3-yl)-1-methyl-3-phenyl-1H-pyrazole-4-carboxamide] |
| < 3 | < 3 | < 3 | > 25 | > 25 | Cn1cc(C(=O)NC(CCc2ccccc2)C(=O)C(N)=O)c(-c2ccccc2)n1 (stereo not drawn) [Compound 417, N-(1-amino-1,2-dioxo-5-phenylpentan-3-yl)-1-methyl-3-phenyl-1H-pyrazole-4-carboxamide] |
| < 3 | < 3 | < 3 | 10 to 25 | 10 to 25 | Cn1cc(C(=O)NC(Cc2cc(Cl)cc(Cl)c2)C(=O)C(N)=O)c(-c2ccccc2)n1 (stereo not drawn) [Compound 418, N-(4-amino-1-(3,5-dichlorophenyl)-3,4-dioxobutan-2-yl)-1-methyl-3-phenyl-1H-pyrazole-4-carboxamide] |
| < 3 | < 3 | < 3 | 10 to 25 | > 25 | CCCC[C@H](NC(=O)c1cn(C)nc1-c1ccccc1)C(=O)C(N)=O [Compound 419, (S)—N-(1-amino-1,2-dioxoheptan-3-yl)-1-methyl-3-phenyl-1H-pyrazole-4-carboxamide] |
| < 3 | < 3 | < 3 | < 10 | > 25 | COc1ccc(C[C@H](NC(=O)c2cn(C)nc2-c2ccccc2)C(=O)C(N)=O)cc1 [Compound 420, (S)—N-(4-amino-1-(4-methoxyphenyl)-3,4-dioxobutan-2-yl)-1-methyl-3-phenyl-1H-pyrazole-4-carboxamide] |
